The results in this text go back to PMC10232832, “ANO1-downregulation induced by schisandrathera D: a novel therapeutic target for the treatment of prostate and oral cancers” (Frontiers in Pharmacology, 2023).

This assay addresses T1, Anoctamin 1 (ANO1) (Homo sapiens, UniProt Q5XXA6).
T1 construct: ANO1 stably expressed in FRT cells
T1 sequence (Q5XXA6 1-986): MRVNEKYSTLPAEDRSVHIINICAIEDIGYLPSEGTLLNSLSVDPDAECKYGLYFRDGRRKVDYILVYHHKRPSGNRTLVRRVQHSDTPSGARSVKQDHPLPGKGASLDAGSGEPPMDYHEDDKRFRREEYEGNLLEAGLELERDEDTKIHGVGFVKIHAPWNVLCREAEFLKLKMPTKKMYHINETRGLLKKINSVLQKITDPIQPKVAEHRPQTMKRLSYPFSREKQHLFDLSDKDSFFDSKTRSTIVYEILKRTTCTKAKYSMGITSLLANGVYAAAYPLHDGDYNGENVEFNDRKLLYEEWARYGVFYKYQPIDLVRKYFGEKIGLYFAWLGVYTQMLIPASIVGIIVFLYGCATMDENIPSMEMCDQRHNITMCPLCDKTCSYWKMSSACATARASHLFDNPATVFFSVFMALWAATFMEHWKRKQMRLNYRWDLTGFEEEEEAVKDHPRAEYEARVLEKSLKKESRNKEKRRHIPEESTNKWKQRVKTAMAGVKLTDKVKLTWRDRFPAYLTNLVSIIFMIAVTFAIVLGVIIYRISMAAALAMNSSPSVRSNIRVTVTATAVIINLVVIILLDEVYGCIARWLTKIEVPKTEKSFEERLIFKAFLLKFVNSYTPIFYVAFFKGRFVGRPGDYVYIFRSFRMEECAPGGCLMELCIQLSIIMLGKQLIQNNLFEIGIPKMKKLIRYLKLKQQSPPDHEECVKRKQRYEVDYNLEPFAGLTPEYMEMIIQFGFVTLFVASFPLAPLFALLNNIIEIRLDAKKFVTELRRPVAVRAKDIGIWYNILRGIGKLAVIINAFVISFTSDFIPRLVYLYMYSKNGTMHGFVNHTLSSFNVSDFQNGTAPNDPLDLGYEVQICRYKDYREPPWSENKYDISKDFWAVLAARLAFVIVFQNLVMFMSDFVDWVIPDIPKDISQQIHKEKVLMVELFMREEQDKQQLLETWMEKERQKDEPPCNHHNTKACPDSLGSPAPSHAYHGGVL
Description: YFP fluorescence quenching (iodide influx) assay in FRT cells expressing ANO1 and YFP. Type of assay: cell-based.

`COc1cc(C[C@@H](C)[C@@H](C)Cc2cc(O)c(OC)c(OC)c2)cc(O)c1OC` [compound 11, schisandrathera D] returned an IC50 of 5.24 µM.
